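96-well plates; 48 h exposure; 5 concentrations. Endpoints by linear interpolation between flanking doses. Not reached: highest tested concentration assigned. The concentration for full growth arrest is given as TGI.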
Experiments:
Experiment in all cases: growth of human tumour cells (NCI), 48 h
UACC-257 melanoma = tested on: UACC-257 melanoma
OVCAR-8 ovarian = tested on: OVCAR-8 ovarian
K-562 leukemia = tested on: K-562 leukemia
SR leukemia = tested on: SR leukemia
SW-620 colon = tested on: SW-620 colon
HOP-92 NSCLC = tested on: HOP-92 NSCLC
BT-549 breast = tested on: BT-549 breast
HCT-116 colon = tested on: HCT-116 colon
A498 renal = tested on: A498 renal
MDA-MB-231 breast = tested on: MDA-MB-231 breast
MDA-MB-435 = tested on: MDA-MB-435
UO-31 renal = tested on: UO-31 renal
ACHN renal = tested on: ACHN renal
UACC-62 melanoma = tested on: UACC-62 melanoma
A549 NSCLC = tested on: A549 NSCLC
NCI/ADR-RES ovarian = tested on: NCI/ADR-RES ovarian
DU-145 prostate = tested on: DU-145 prostate
SK-MEL-5 melanoma = tested on: SK-MEL-5 melanoma
CAKI-1 renal = tested on: CAKI-1 renal
SNB-75 CNS = tested on: SNB-75 CNS
SK-MEL-28 melanoma = tested on: SK-MEL-28 melanoma
RPMI-8226 leukemia = tested on: RPMI-8226 leukemia
HT29 colon = tested on: HT29 colon
HCT-15 colon = tested on: HCT-15 colon
NCI-H226 lung = tested on: NCI-H226 lung
LOX IMVI melanoma = tested on: LOX IMVI melanoma
HCC-2998 colon = tested on: HCC-2998 colon
KM12 colon = tested on: KM12 colon
SK-MEL-2 melanoma = tested on: SK-MEL-2 melanoma
PC-3 prostate = tested on: PC-3 prostate
MDA-N = tested on: MDA-N
TK-10 renal = tested on: TK-10 renal
OVCAR-4 ovarian = tested on: OVCAR-4 ovarian
U251 CNS = tested on: U251 CNS
HS 578T breast = tested on: HS 578T breast
T-47D breast = tested on: T-47D breast
SNB-19 CNS = tested on: SNB-19 CNS
SF-268 CNS = tested on: SF-268 CNS
786-0 renal = tested on: 786-0 renal
SN12C renal = tested on: SN12C renal
NCI-H23 lung = tested on: NCI-H23 lung
COLO 205 colon = tested on: COLO 205 colon
NCI-H460 lung = tested on: NCI-H460 lung

**Q.** What does the source list for `COc1cc(OC)cc(-n2c(N)c(C#N)c3ccc([N+](=O)[O-])cc3c2=O)c1`?
**A.** TGI (UACC-257 melanoma): > 100 µM; TGI (OVCAR-8 ovarian): 59.2 µM; TGI (K-562 leukemia): > 100 µM; TGI (SR leukemia): 55.8 µM; TGI (SW-620 colon): > 100 µM; TGI (HOP-92 NSCLC): 44.9 µM; TGI (BT-549 breast): > 100 µM; TGI (HCT-116 colon): > 100 µM; TGI (A498 renal): 41.6 µM; TGI (MDA-MB-231 breast): 96.2 µM; TGI (MDA-MB-435): > 100 µM; TGI (UO-31 renal): 74.9 µM; TGI (ACHN renal): > 100 µM; TGI (UACC-62 melanoma): > 100 µM; TGI (A549 NSCLC): > 100 µM; TGI (NCI/ADR-RES ovarian): > 100 µM; TGI (DU-145 prostate): 47.1 µM; TGI (SK-MEL-5 melanoma): > 100 µM; TGI (CAKI-1 renal): 90.8 µM; TGI (SNB-75 CNS): 60.6 µM; TGI (SK-MEL-28 melanoma): > 100 µM; TGI (RPMI-8226 leukemia): > 100 µM; TGI (HT29 colon): > 100 µM; TGI (HCT-15 colon): > 100 µM; TGI (NCI-H226 lung): 51.6 µM; TGI (LOX IMVI melanoma): > 100 µM; TGI (HCC-2998 colon): > 100 µM; TGI (KM12 colon): > 100 µM; TGI (SK-MEL-2 melanoma): > 100 µM; TGI (PC-3 prostate): > 100 µM; TGI (MDA-N): > 100 µM; TGI (TK-10 renal): 69 µM; TGI (OVCAR-4 ovarian): 52 µM; TGI (U251 CNS): 52.4 µM; TGI (HS 578T breast): 87.6 µM; TGI (T-47D breast): > 100 µM; TGI (SNB-19 CNS): 40.4 µM; TGI (SF-268 CNS): > 100 µM; TGI (786-0 renal): 39.5 µM; TGI (SN12C renal): 52.3 µM; TGI (NCI-H23 lung): > 100 µM; TGI (COLO 205 colon): > 100 µM; TGI (NCI-H460 lung): > 100 µM

Reference: PubChem BioAssay (NCI)
